Measurements taken from US20240279171A1, “METHODS FOR PREPARING CRYSTALLINE FORMS OF AMISULPRIDE” (SUNOVION PHARMACEUTICALS INC., priority 2021, published 2024).
Read-outs that look alike come from different tables or passages of the source.

Assays:
[1] = DVS, 25° C., 0 to 95% relative humidity; '738 patent; cited from earlier work
[2] = Specific surface area (SSA), nitrogen gas, Quantachrome Quadrasorb SI; assay type: physicochemical; details: degassed 2 hours at 40° C. under vacuum
Protocol: Specific surface area (SSA) was measured using a Quantachrome Quadrasorb SI surface area analyzer performed at six-points over the relative pressure range of 0.1000 to 0.3500 in 0.0500 increments. Approximately 1.3 to 4.6 grams of sample were used per analysis and were weighed into bulb tubes. Samples in bulb tubes were degassed 2 hours at 40° C. under vacuum using the Quantachrome FlowVac degasser prior to surface area analysis. Nitrogen gas was used as the gas for the surface area analyses.

[3] = Dynamic vapor sorption (DVS) water sorption isotherm; assay type: physicochemical; details: 25° C.; for hygroscopicity: DVS
Description: In various embodiments, the hygroscopicity of a compound is characterized by dynamic vapor sorption (DVS). DVS is a gravimetric technique that measures how much of a solvent is absorbed by a sample by varying the vapor concentration surrounding the sample (e.g., relative humidity) and measuring the change in mass. DVS was used herein to generate water sorption isotherms, which represent the equilibrium amount of water vapor adsorbed and/or absorbed as a function of steady state relative water vapor pressure at a constant temperature.
Dynamic vapor sorption (DVS) isotherms were generated using a VTI SGA-100 Symmetric Vapor Sorption Analyzer. Analysis included pre-analysis drying at 25° C. with equilibrium criteria of 0.0000 wt % change in 5 minutes or a maximum of 180 minutes. Equilibrium criteria were the lesser of 0.01 wt % change in 5 minutes or 180 minutes at each RH step. […] Analysis was repeated for each sample in consecutive analyses (i.e., the sample was not removed from analyzer between analyses).
Tables 9A and 9B presents the DVS water sorption for crystalline enantiomeric amisulpride of Form A and Form A′ shown in FIG. 7A.

[4] = Particle size distribution by laser diffraction (Malvern Mastersizer 3000), Example 9; assay type: physicochemical; details: pre-sieved through 30 mesh screen, 0.2% Span 85 in hexanes
Protocol: Prior to analysis, the Form A′ crystals of (S)-amisulpride and Form A crystals of (R)-amisulpride were separately pre-sieved through a 30 mesh screen. All material was passed through screen during this pre-sieving step including aggregates.
Particle size distribution (PSD) measurements were measured by laser diffraction using a Malvern Instruments Mastersizer 3000 particle size analyzer instrument operated with the instrumentation and parameters described in Table 7.
The samples were first sieved through a 30 mesh screen prior to suspension. Approximately 400 mg of the sieved sample was weighed into a 50 ml beaker and 40 ml of a 0.2% v/v Span 85 (Sorbitan trioleate) in hexanes dispersant solution (e.g., a dispersant solution prepared by dissolving 2 mL of Span 85 (Sorbitan trioleate) in 1 L of hexanes) added. The overhead stirrer impeller was placed slightly above the bottom of the beaker (about 1 to 1.5 cm) and stirred at 500 rpm. After 1 minute, a disposable graduated transfer pipette was used to remove about 3 mL of the sample suspension from the center position of the beaker between impeller shaft and beaker side, and midway between top of vortex and beaker bottom. The entire contents of the pipette were added to the Malvern sample cell without inverting the pipette and the pipette rinsed twice with the circulating dispersant from the sample cell. The obscuration should be between 7% and 15%, if the obscuration was less than 7%, another aliquot of sample was added, making sure to transfer the entire aliquot taken up in the transfer pipette to the instrument, in order to avoid, e.g., potential artifacts due to settling of the suspension within the pipette. If the obscuration was greater than 15%, the instrument was drained and rinsed, and the measurement performed using a smaller sample suspension aliquot. After a sample cell with acceptable obscuration was obtained, the sample was circulated in the Mastersizer Hydro MV circulation system for two minutes and the sample dispersion measured.

[5] = Particle size distribution (Malvern Mastersizer), Example 16; assay type: physicochemical; details: for PSD D10 (μm) / PSD D50 (μm) / PSD D90 (μm): cooling method Y (Example 4) vs cooling method X (Example 14); for D10 (μm) / D50 (μm) / D90 (μm): crystalline amisulpride used in the tablet formulations, Mastersizer 2000
Description: The particle size distribution (PSD) of crystalline products prepared by the foregoing examples were examined. FIG. 10 presents a plot of the cooling profile comparison between the cooling profile X, using the recrystallization procedure of, e.g., Example 14, with cooling profile Y, using the recrystallization procedure of, e.g., Example 4 (Step 2). Recrystallization using the cooling methods of Example 14 (cooling method X) provided Form A′ having a smaller particle size distribution (e.g., D50 and D90 values) than Form A′ prepared by the methods of Example 4 (cooling method Y), as shown in the table below.
PSD data was obtained using a Malvern Instruments Mastersizer particle size analyzer instrument.
The PSD of the crystalline amisulpride used in the various formulations are provided below. Amisulpride corresponding to “small PSD” can be prepared using the recrystallization and cooling methods of, e.g., Examples 14 and 15 (i.e., cooling profile X of FIG. 10). Amisulpride corresponding to “large PSD” can be prepared using the recrystallization methods of Examples 1 and 3 (i.e., cooling profile Y of FIG. 10). The PSDs were measured using a Mastersizer 2000 particle size analyzer instrument as described above.

[6] = listed as Form A′ (averages of lots prepared by the methods of Example 4)

In the case of `CCN1CCC[C@@H]1CNC(=O)c1cc(S(=O)(=O)CC)c(N)cc1OC` [(R)-amisulpride Form A, (R)-4-Amino-N-[(1-ethyl-2-pyrrolidinyl)methyl]-5-(ethylsulfonyl)-2-methoxybenzamide], the hygroscopicity [1] is given as “substantially non-hygroscopic”, the “SSA (m^2/g)” value [2] is given as 0.51 m^2/g and the “DVS Ads. at 95% RH” value [3] is given as 0.14. The “Change Mass (wt %)” value ([3]; Relative Humidity 1.39 %, elapse time 155.38 min) was 0.000 wt %, the “Change Mass (wt %)” value ([3]; Relative Humidity 4.79 %, elapse time 327.39 min) was −0.003 wt % and the “Change Mass (wt %)” value ([3]; Relative Humidity 10.00 %, elapse time 340.39 min) was 0.003 wt %. The “Change Mass (wt %)” value ([3]; Relative Humidity 14.96 %, elapse time 359.89 min) was 0.009 wt %, the “Change Mass (wt %)” value ([3]; Relative Humidity 19.81 %, elapse time 366.91 min) was 0.015 wt % and the “Change Mass (wt %)” value ([3]; Relative Humidity 24.91 %, elapse time 374.93 min) was 0.020 wt %. For the same compound, the “Change Mass (wt %)” value ([3]; Relative Humidity 30.02 %, elapse time 382.94 min) was 0.026 wt %, the “Change Mass (wt %)” value ([3]; Relative Humidity 34.96 %, elapse time 390.96 min) was 0.031 wt % and the “Change Mass (wt %)” value ([3]; Relative Humidity 39.94 %, elapse time 398.96 min) was 0.038 wt %. For the same compound, the “Change Mass (wt %)” value ([3]; Relative Humidity 44.99 %, elapse time 406.96 min) was 0.043 wt %, the “Change Mass (wt %)” value ([3]; Relative Humidity 49.99 %, elapse time 415.98 min) was 0.049 wt % and the “Change Mass (wt %)” value ([3]; Relative Humidity 54.96 %, elapse time 424.99 min) was 0.055 wt %. The “Change Mass (wt %)” value ([3]; Relative Humidity 59.96 %, elapse time 434.01 min) was 0.061 wt %, the “Change Mass (wt %)” value ([3]; Relative Humidity 64.91 %, elapse time 443.03 min) was 0.067 wt % and the “Change Mass (wt %)” value ([3]; Relative Humidity 69.86 %, elapse time 452.04 min) was 0.073 wt %. For the same compound, the “Change Mass (wt %)” value ([3]; Relative Humidity 74.86 %, elapse time 461.04 min) was 0.080 wt %, the “Change Mass (wt %)” value ([3]; Relative Humidity 79.80 %, elapse time 470.04 min) was 0.087 wt % and the “Change Mass (wt %)” value ([3]; Relative Humidity 84.74 %, elapse time 479.04 min) was 0.101 wt %. The “Change Mass (wt %)” value ([3]; Relative Humidity 89.58 %, elapse time 488.06 min) was 0.113 wt %, the “Change Mass (wt %)” value ([3]; Relative Humidity 94.72 %, elapse time 497.06 min) was 0.135 wt % and the hygroscopicity [3] was “substantially non-hygroscopic”. The “Average PSD D10 (μm)” value [4] was 14.3 μm, the “Average PSD D50 (μm)” value [4] was 47.7 μm and the “Average PSD D90 (μm)” value [4] was 133.9 μm.

For `CCN1CCC[C@H]1CNC(=O)c1cc(S(=O)(=O)CC)c(N)cc1OC` [(S)-amisulpride Form A′, (S)-4-Amino-N-[(1-ethyl-2-pyrrolidinyl)methyl]-5-(ethylsulfonyl)-2-methoxybenzamide], the hygroscopicity [1] is given as “substantially non-hygroscopic”, the “SSA (m^2/g)” value [2] is given as 0.65 m^2/g and the “PSD D10 (μm)” value [5, 6] is given as 6.0 μm. The “PSD D50 (μm)” value [5, 6] was 29.1 μm, the “PSD D90 (μm)” value [5, 6] was 99.4 μm and the “DVS Ads. at 95% RH” value [3] was 0.09. The “Change Mass (wt %)” value ([3]; Relative Humidity 1.41 %, elapse time 180.73 min) was 0.000 wt %, the “Change Mass (wt %)” value ([3]; Relative Humidity 5.38 %, elapse time 195.14 min) was 0.003 wt % and the “Change Mass (wt %)” value ([3]; Relative Humidity 10.12 %, elapse time 207.64 min) was 0.006 wt %. For the same compound, the “Change Mass (wt %)” value ([3]; Relative Humidity 15.00 %, elapse time 219.64 min) was 0.011 wt %, the “Change Mass (wt %)” value ([3]; Relative Humidity 19.73 %, elapse time 227.64 min) was 0.017 wt % and the “Change Mass (wt %)” value ([3]; Relative Humidity 24.91 %, elapse time 235.64 min) was 0.023 wt %. For the same compound, the “Change Mass (wt %)” value ([3]; Relative Humidity 29.95 %, elapse time 243.64 min) was 0.029 wt %, the “Change Mass (wt %)” value ([3]; Relative Humidity 34.98 %, elapse time 251.64 min) was 0.033 wt % and the “Change Mass (wt %)” value ([3]; Relative Humidity 40.01 %, elapse time 260.64 min) was 0.038 wt %. The “Change Mass (wt %)” value ([3]; Relative Humidity 44.94 %, elapse time 269.64 min) was 0.042 wt %, the “Change Mass (wt %)” value ([3]; Relative Humidity 50.00 %, elapse time 278.64 min) was 0.049 wt % and the “Change Mass (wt %)” value ([3]; Relative Humidity 55.02 %, elapse time 287.66 min) was 0.053 wt %. The “Change Mass (wt %)” value ([3]; Relative Humidity 59.89 %, elapse time 296.66 min) was 0.059 wt %, the “Change Mass (wt %)” value ([3]; Relative Humidity 64.92 %, elapse time 305.66 min) was 0.066 wt % and the “Change Mass (wt %)” value ([3]; Relative Humidity 69.86 %, elapse time 314.66 min) was 0.072 wt %. The “Change Mass (wt %)” value ([3]; Relative Humidity 74.97 %, elapse time 323.66 min) was 0.076 wt %, the “Change Mass (wt %)” value ([3]; Relative Humidity 79.71 %, elapse time 332.66 min) was 0.084 wt % and the “Change Mass (wt %)” value ([3]; Relative Humidity 84.74 %, elapse time 341.66 min) was 0.094 wt %. For the same compound, the “Change Mass (wt %)” value ([3]; Relative Humidity 89.75 %, elapse time 350.66 min) was 0.103 wt %, the “Change Mass (wt %)” value ([3]; Relative Humidity 94.55 %, elapse time 359.68 min) was 0.114 wt % and the hygroscopicity [3] was “substantially non-hygroscopic”. The “Average PSD D10 (μm)” value [4] was 9.5 μm, the “Average PSD D50 (μm)” value [4] was 32.3 μm and the “Average PSD D90 (μm)” value [4] was 116.9 μm.

In the case of `CCN1CCC[C@@H]1CNC(=O)c1cc(S(=O)(=O)CC)c(N)cc1OC` [Form A large PSD], the “D10 (μm)” value [5] is reported as 12.8 μm, the “D50 (μm)” value [5] is reported as 94.9 μm and the “D90 (μm)” value [5] is reported as 441.4 μm.

In the case of `CCN1CCC[C@@H]1CNC(=O)c1cc(S(=O)(=O)CC)c(N)cc1OC` [Form A small PSD], the “D10 (μm)” value [5] is reported as 4.7 μm, the “D50 (μm)” value [5] is reported as 18.2 μm and the “D90 (μm)” value [5] is reported as 90.4 μm.

With `CCN1CCC[C@H]1CNC(=O)c1cc(S(=O)(=O)CC)c(N)cc1OC` [Form A′ large PSD] the “D10 (μm)” value [5] was 31.6 μm, the “D50 (μm)” value [5] was 93.1 μm and the “D90 (μm)” value [5] was 425.4 μm.

For `CCN1CCC[C@H]1CNC(=O)c1cc(S(=O)(=O)CC)c(N)cc1OC` [Form A′ prepared by Example 14, (S)-4-Amino-N-[(1-ethyl-2-pyrrolidinyl)methyl]-5-(ethylsulfonyl)-2-methoxybenzamide], the “PSD D10 (μm)” value [5] was 7.0 μm, the “PSD D50 (μm)” value [5] was 25.5 μm and the “PSD D90 (μm)” value [5] was 83.9 μm.

In the case of `CCN1CCC[C@H]1CNC(=O)c1cc(S(=O)(=O)CC)c(N)cc1OC` [Form A′ small PSD], the “D10 (μm)” value [5] is reported as 5.1 μm, the “D50 (μm)” value [5] is reported as 18.3 μm and the “D90 (μm)” value [5] is reported as 80.1 μm.
